# Reference: US20020094522A1, “Means and methods for monitoring non-nucleoside reverse transcriptase inhibitor antiretroviral therapy and guiding therapeutic decisions in the treatment of HIV/AIDS” (priority 2000, published 2002)
# Tests used:
# Assay type in all cases: cell-based, HIV-1
# [1] = tested on: RTV-644 (patient sample 97-644 / 98-644); assay: Phenotypic susceptibility assay, RTV-644; details: for susceptibility/resistance compared to reference virus: RTV-644, Example 5; for fold decrease in susceptibility (IC50): RTV-644, patient-derived pool
# From the text: The resistance test vectors containing a functional luciferase gene cassette were constructed and host cells were transfected with the resistance test vector DNA. The resistant test vectors contained patient-derived reverse transcriptase and protease sequences that were either susceptible or resistant to the antiretroviral agents, such as nucleoside reverse transcriptase inhibitors, non-nucleoside reverse transcriptase inhibitors and protease inhibitors. The resistance test vector viral particles produced by transfecting the resistance test vector DNA into host cells, either in the presence or absence of protease inhibitors, were used to infect target host cells grown either in the absence of NRTI or NNRTI or in the presence of increasing concentrations of the drug. The amount of luciferase activity produced in infected target host cells in the presence of drug was compared to the amount of luciferase produced in infected target host cells in the absence of drug. Drug resistance was measured as the amount of drug required to inhibit by 50% the luciferase activity detected in the absence of drug (inhibitory concentration 50%, IC50). The IC50 values were determined by plotting percent drug inhibition vs. log10 drug concentration.
# Host cells were seeded in 10-cm-diameter dishes and were transfected several days after plating with resistance test vector plasmid DNA and the envelope expression vector. Transfections were performed using a calcium-phosphate precipitation procedure. The cell culture media containing the DNA precipitate was replaced with fresh medium, from one to 24 hours, after transfection. Cell culture media containing resistance test vector viral particles was harvested one to four days after transfection and was passed through a […] filter before being stored at −80° C. HIV capsid protein (p24) levels in the harvested cell culture media were determined by an EIA method as described by the manufacturer (SIAC; Frederick, Md.). Before infection, target cells (293 and 293/T) were plated in cell culture media. Control infections were performed using cell culture media from mock transfections (no DNA) or transfections containing the resistance test vector plasmid DNA without the envelope expression plasmid. One to three or more days after infection the media was removed and cell lysis buffer (Promega) was added to each well. […] The inhibitory effect of the drug was determined using the following equation: […]
# Isolation of viral RNA and RT/PCR was used to generate a patient derived segment that comprised viral sequences coding for all of PR and amino acids 1-313 of RT. […] An IC50 was determined for each drug tested. […]
# [2] = tested on: RTVs containing P236L plus K103N, Y181C or both (K103N+Y181C); assay: Phenotypic susceptibility assay, P236L added to K103N, Y181C or both; details: P236L with K103N
# Protocol: (§1) Transfections were performed using a calcium-phosphate precipitation procedure. […] Cell lysates were assayed for luciferase activity (FIG. 3).
# (§2) The drug inhibition curves are shown in (FIG. 3).
# Resistance test vectors were constructed containing the P236L mutation alone and in combination with other known drug resistance mutations (K103N, Y181C) that are known to modulate the susceptibility of HIV-1 to NNRTIs. […] The P236L mutation was also introduced into a RTV containing mutations at K103N, Y181C or both (K103N+Y181C).
# [3] = tested on: RTV-302 (patient sample 97-302; K103N, P225H); assay: Phenotypic susceptibility assay, RTV-302; details: RTV-302, patient-derived
# Protocol: as §1, §2
# A resistance test vector was constructed as described in example 1 from a patient sample designated as 97-302. This patient had been treated with d4T, indinavir and DMP-266 for a period of approximately 10 months. Isolation of viral RNA and RT/PCR was used to generate a patient derived segment that comprised viral sequences coding for all of PR and aa 1-313 of RT. The patient derived segment was inserted into a indicator gene viral vector to generate a resistance test vector designated RTV-302. RTV-302 was tested using a phenotypic susceptibility assay to determine accurately and quantitatively the level of susceptibility to a panel of anti-retroviral drugs. […] An IC50 was determined for each drug tested. Susceptibility of the patient virus to each drug was examined and compared to known patterns of susceptibility.
# [4] = tested on: RTVs containing P225H plus K103N, Y181C or both (K103N+Y181C); assay: Phenotypic susceptibility assay, P225H added to K103N, Y181C or both; details: P225H with K103N
# Protocol: as §1, §2
# (§3) Resistance test vectors were constructed containing the P225H mutation alone and in combination with other known drug resistance mutations (K103N, Y181C) known to modulate the HIV susceptibility to NNRTIs. […] (Sakar G and Sommar SS (1994) Biotechniques 8(4), 404-407). […] The pattern of phenotypic susceptibility to the NNRTI, delavirdine in the P225H-RTV was altered as compared to wild type.
# [5] = tested on: P225H-RTV (HIV reverse transcriptase P225H); assay: Phenotypic susceptibility assay, P225H-RTV; details: P225H mutation alone
# Protocol: as §1, §2, §3
# [6] = tested on: RTV-1058 Clone 10 (L100I, K103N and Y188L); assay: Phenotypic susceptibility assay, RTV-1058 clone 10
# Protocol: The resistance test vectors containing a functional luciferase gene cassette were constructed and host cells were transfected with the resistance test vector DNA. The resistant test vectors contained patient-derived reverse transcriptase and protease sequences that were either susceptible or resistant to the antiretroviral agents, such as nucleoside reverse transcriptase inhibitors, non-nucleoside reverse transcriptase inhibitors and protease inhibitors. […] The IC50 values were determined by plotting percent drug inhibition vs. log10 drug concentration.
# Host cells were seeded in 10-cm-diameter dishes and were transfected several days after plating with resistance test vector plasmid DNA and the envelope expression vector. […] HIV capsid protein (p24) levels in the harvested cell culture media were determined by an EIA method as described by the manufacturer (SIAC; Frederick, Md.). […] The inhibitory effect of the drug was determined using the following equation: […]
# A resistance test vector was constructed as described in Example 1 from a patient sample designated 98-1058. […] An IC50 was determined for the resistance test vector pool for each drug tested.
# [7] = tested on: RTV-1057 (patient sample 98-1057); assay: Phenotypic susceptibility assay, RTV-1057; details: RTV-1057, patient-derived pool
# Protocol: as §1, §2
# A resistance test vector was constructed as described in Example 1 from a patient sample designated 98-1057. This patient had been previously treated with ddI, d4T, AZT, and 3TC (NRTIs), saquinavir and indinavir (PRIs) and delavirdine (an NNRTI). Isolation of viral RNA and RT/PCR was used to generate a patient derived segment that comprised viral sequences coding for all of PR and aa 1-313 RT. The PDS was inserted into an indicator gene viral vector to generate resistance test vector designated RTV-1057. RTV-1057 was then tested in a phenotypic assay to determine accurately and quantitatively the level of susceptibility to a panel of anti-retroviral drugs. […] An IC50 was determined for the resistance test vector pool for each drug tested. The pattern of susceptibility to all of the drugs tested was examined and compared to known patterns of susceptibility.
smiles,measurement,setting,value
Cc1ccnc2c1NC(=O)c1cccnc1N2C1CC1 [nevirapine],susceptibility/resistance compared to reference virus,[1],resistant to nevirapine
same,fold decrease in susceptibility (IC50),[1],600 fold
same,change in susceptibility compared to the corresponding RTV lacking P236L,[2],did not significantly alter nevirapine susceptibility
same,change in susceptibility,[3],significant decrease in nevirapine susceptibility
same,change in susceptibility compared to the corresponding RTV lacking P225H,[4],did not significantly change nevirapine susceptibility
same,change in susceptibility compared to wild type control RTV,[5],No significant change in nevirapine susceptibility
same,fold loss of susceptibility (IC50),[6],greater than 800 fold
same,fold decrease in susceptibility (IC50),[7],610 fold
CC(C)Nc1cccnc1N1CCN(C(=O)c2cc3cc(NS(C)(=O)=O)ccc3[nH]2)CC1 [delavirdine],susceptibility/resistance compared to reference virus,[1],little or no resistance to delavirdine
same,fold decrease in susceptibility (IC50),[1],2.5 fold
same,change in susceptibility compared to the corresponding RTV lacking P236L,[2],less susceptible (more resistant) to delavirdine if the P236L mutation was present
same,change in susceptibility,[3],modest decrease in delavirdine susceptibility
same,change in susceptibility compared to the corresponding RTV lacking P225H,[4],more susceptible to inhibition by delavirdine if the P225H mutation was present
same,change in susceptibility compared to wild type control RTV,[5],more susceptible to delavirdine than the wild type control RTV
same,fold loss of susceptibility (IC50),[6],greater than 250 fold
same,fold decrease in susceptibility (IC50),[7],35 fold
